The supplement of paper PMC4932681
Structures can show the parent of a compound that is named as a salt.

What was measured:
Experiment in all cases: viability inhibition at highest dose (% inhibition); higher = more growth inhibition
[1] = system: BT-474 Tam1; conditions: 4-OH-tamoxifen in medium 1 µM; 72 h
Summary of the method: (§1)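 Breast cancer cell lines and their resistant derivatives were seeded into 384-well plates holding FO2Baq library drugs at five concentrations spanning a 10 000-fold range. Resistant lines were in medium with 1 μM of the selecting drug. Cells were incubated 72 h at 37 °C, and CellTiter-Glo viability was read on a PHERAstar and normalised to vehicle-only and positive controls. Drug sensitivity score, relative IC50 (curve midpoint) and top-dose inhibition came from logistic dose–response fits (Breeze pipeline).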

[2] = system: BT-474 Tam2; conditions: 4-OH-tamoxifen in medium 1 µM; 72 h
Summary of the method: as §1

[3] = system: BT-474; conditions: 72 h
Summary of the method: as §1

[4] = system: MCF-7 Tam1; conditions: 4-OH-tamoxifen in medium 1 µM; 72 h
Summary of the method: as §1

[5] = system: MCF-7; conditions: 72 h
Summary of the method: as §1

[6] = system: T-47D Tam1; conditions: 4-OH-tamoxifen in medium 1 µM; 72 h
Summary of the method: as §1

[7] = system: T-47D Tam2; conditions: 4-OH-tamoxifen in medium 1 µM; 72 h
Summary of the method: as §1

[8] = system: T-47D; conditions: 72 h
Summary of the method: as §1

[9] = system: ZR-75-1 Tam1; conditions: 4-OH-tamoxifen in medium 1 µM; 72 h
Summary of the method: as §1

[10] = system: ZR-75-1 Tam2; conditions: 4-OH-tamoxifen in medium 1 µM; 72 h
Summary of the method: as §1

[11] = system: ZR-75-1; conditions: 72 h
Summary of the method: as §1

SMILES | viability inhibition at highest dose [1] | viability inhibition at highest dose [2] | viability inhibition at highest dose ([3]; 4-OH-tamoxifen in medium 0 µM) | viability inhibition at highest dose ([3]; 4-OH-tamoxifen in medium 1 µM) | viability inhibition at highest dose [4] | viability inhibition at highest dose ([5]; 4-OH-tamoxifen in medium 0 µM) | viability inhibition at highest dose ([5]; 4-OH-tamoxifen in medium 1 µM) | viability inhibition at highest dose [6] | viability inhibition at highest dose [7] | viability inhibition at highest dose ([8]; 4-OH-tamoxifen in medium 0 µM) | viability inhibition at highest dose ([8]; 4-OH-tamoxifen in medium 1 µM) | viability inhibition at highest dose [9] | viability inhibition at highest dose [10] | viability inhibition at highest dose ([11]; 4-OH-tamoxifen in medium 0 µM) | viability inhibition at highest dose ([11]; 4-OH-tamoxifen in medium 1 µM)
CC/C(=C(\c1ccccc1)c1ccc(OCCN(C)C)cc1)c1ccccc1 [Tamoxifen citrate] (drug 10000 nM) | 95.3 | 93.8 | 35.7 | 91.4 | 28.6 | 10.6 | 78.6 | 15.1 | 50 | 4.58 | 10.2 | 17.8 | 26.3 | 9.17 | 38.8
COc1cccc2c1C(=O)c1c(O)c3c(c(O)c1C2=O)C[C@@](O)(C(C)=O)C[C@@H]3O[C@H]1C[C@H](N)[C@H](O)[C@H](C)O1 [Daunorubicin] (drug 1000 nM) | 72.8 | 32.7 | 53.8 | 95.4 | 32.2 | 78.9 | 87.8 | 67.9 | 68.4 | 72.4 | 73.5 | 64.3 | 70.7 | 63.6 | 55.3
C[C@]12O[C@H](C[C@]1(O)CO)n1c3ccccc3c3c4c(c5c6ccccc6n2c5c31)CNC4=O [Lestaurtinib] (drug 1000 nM) | 46.3 | 24.5 | 10.1 | 42.1 | 21.2 | 21.4 | 9.26 | -16.2 | -5.08 | -13.3 | 19.6 | 1.32 | 12.4 | 8.87 | 8.3
CN1CCN(c2ccc3nc(-c4c(N)c5c(F)cccc5[nH]c4=O)[nH]c3c2)CC1 [Dovitinib (CHIR-258)] (drug 10000 nM) | -12.6 | -10.4 | -10.4 | -18.2 | -5.66 | -32.5 | -8.7 | -4.27 | 4.9 | -16.4 | -8.28 | 0.00734 | -6.37 | -10.6 | -9.07
N#CCNC(=O)c1ccc(-c2ccnc(Nc3ccc(N4CCOCC4)cc3)n2)cc1 [Momelotinib (CYT-387)] (drug 10000 nM) | 38.6 | 31.1 | 3.98 | -26.5 | 43.1 | 48.5 | 69 | 39.2 | 40 | 22.8 | 17.9 | 7.45 | 8.52 | 6.2 | 5.38
CO[C@@H]1[C@H](N(C)C(=O)c2ccccc2)C[C@H]2O[C@]1(C)n1c3ccccc3c3c4c(c5c6ccccc6n2c5c31)C(=O)NC4 [Midostaurin (PKC412)] (drug 10000 nM) | 27.5 | 19.4 | 23.7 | 40.4 | 17.7 | 18.9 | 17 | 34.6 | 25.1 | 18.3 | 39.4 | -11.5 | -15.6 | -11.7 | 0.532
COc1cc([C@@H]2c3cc4c(cc3[C@@H](O[C@@H]3O[C@@H]5CO[C@@H](c6cccs6)O[C@H]5[C@H](O)[C@H]3O)[C@H]3COC(=O)[C@H]23)OCO4)cc(OC)c1O [Teniposide] (drug 10000 nM) | 62.6 | 13.2 | 54.2 | 87.3 | 18 | 55.1 | 28 | 78.3 | 46.3 | 54.1 | 36.5 | 37 | 42.4 | 43.9 | 35.7
O=C(/C=C/c1cccnc1)NCCCCC1CCN(C(=O)c2ccccc2)CC1 [Daporinad (FK-866 HCl)] (drug 1000 nM) | 47.2 | 17.4 | 12.2 | 64.7 | -5.53 | 76.6 | 67.9 | 91.9 | 85.3 | 92.2 | 90.2 | -12.7 | 0.891 | -2.09 | -11.5
C=C1C[C@@H]2[C@H](CC[C@]3(C)C(=O)CC[C@@H]23)[C@@]2(C)C=CC(=O)C=C12 [Exemestane] (drug 10000 nM) | 0.0289 | -0.955 | 0.814 | 0.09 | 3.68 | 19.4 | 7.88 | 2.32 | 19.2 | -12.5 | -2.8 | 4.25 | -3.66 | -15.1 | -6.66
COC(=O)C[C@](O)(CCCC(C)(C)O)C(=O)O[C@@H]1C(OC)=C[C@]23CCCN2CCc2cc4c(cc2[C@H]13)OCO4 [Omacetaxine (Homoharringtonine)] (drug 10000 nM) | 82.1 | 73.4 | 19.5 | 75 | 62.7 | 82.1 | 75.5 | 74.5 | 71.4 | 81.1 | 55.6 | 53.7 | 76.1 | 54.1 | 52.2
CC1(C)CCC(c2ccc(Cl)cc2)=C(CN2CCN(c3ccc(C(=O)NS(=O)(=O)c4ccc(N[C@H](CCN5CCOCC5)CSc5ccccc5)c(S(=O)(=O)C(F)(F)F)c4)cc3)CC2)C1 [Navitoclax (ABT-263)] (drug 10000 nM) | 33.3 | 32.7 | 6.74 | 47.7 | 5 | 27 | 14.2 | 38.4 | 23.7 | 0.832 | 3.74 | -1.41 | -6.95 | -9.03 | -6.23
Cn1cc(CNCC2CCN(c3ncc(C(=O)NO)cn3)CC2)c2ccccc21 (drug 1000 nM) | 83.8 | 74.7 | 88.3 | 94.3 | 21.6 | 89.3 | 90 | 86.6 | 71.1 | 94.3 | 94.1 | 37.4 | 48.7 | 47.6 | 37.9
CO[C@H]1C[C@@H]2CC[C@@H](C)[C@@](O)(O2)C(=O)C(=O)N2CCCC[C@H]2C(=O)O[C@H]([C@H](C)C[C@@H]2CC[C@@H](OC(=O)C(C)(CO)CO)[C@H](OC)C2)CC(=O)[C@H](C)/C=C(\C)[C@@H](O)[C@@H](OC)C(=O)[C@H](C)C[C@H](C)/C=C/C=C/C=C/1C [Temsirolimus] (drug 100 nM) | 20.6 | 14.5 | 8.72 | 3.21 | 10.6 | 40.1 | 35.9 | 31.8 | 24 | 26.7 | 13.2 | 30.5 | 36.2 | 33.7 | 28.7
